The target in test [1] is Sodium-dependent dopamine transporter (Rattus norvegicus, UniProt P23977). Description: Inhibition of dopamine uptake in synaptosomal preparation in rat corpus striatum, using [3H]dopamine. It counts as functional, tissue-based.
The target in test [2] is Norepinephrine transporter (Rattus norvegicus, UniProt Q9WTR4). Description: Inhibition of norepinephrine uptake in synaptosomal preparation fro rat hypothalamus, using [3H]norepinephrine. It counts as functional, tissue-based.

The structures appear in SMILES notation. Structures can show the parent of a compound that is named as a salt.

This passage reports IC50 results from ChEMBL document CHEMBL1122801, “Nontricyclic antidepressant agents derived from cis- and trans-1-amino-4-aryltetralins” (J Med Chem, 1984).

Sequence of Norepinephrine transporter (Q9WTR4 whole entry): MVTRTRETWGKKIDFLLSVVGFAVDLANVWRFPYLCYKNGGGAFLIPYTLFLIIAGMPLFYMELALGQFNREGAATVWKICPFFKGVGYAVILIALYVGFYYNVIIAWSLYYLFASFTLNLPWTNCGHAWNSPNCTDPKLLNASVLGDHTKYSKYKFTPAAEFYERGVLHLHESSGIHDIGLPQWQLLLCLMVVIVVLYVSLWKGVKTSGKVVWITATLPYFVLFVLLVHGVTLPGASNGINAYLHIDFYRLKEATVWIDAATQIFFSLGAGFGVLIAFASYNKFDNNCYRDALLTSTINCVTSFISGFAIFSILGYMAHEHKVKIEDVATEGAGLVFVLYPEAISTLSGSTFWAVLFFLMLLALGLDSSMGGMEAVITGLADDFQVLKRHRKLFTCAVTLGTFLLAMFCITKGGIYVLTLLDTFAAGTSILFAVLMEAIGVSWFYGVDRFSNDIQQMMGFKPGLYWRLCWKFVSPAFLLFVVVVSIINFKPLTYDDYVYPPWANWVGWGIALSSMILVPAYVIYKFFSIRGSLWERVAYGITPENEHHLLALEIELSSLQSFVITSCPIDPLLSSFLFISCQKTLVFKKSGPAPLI
Sequence of Sodium-dependent dopamine transporter (P23977 whole entry): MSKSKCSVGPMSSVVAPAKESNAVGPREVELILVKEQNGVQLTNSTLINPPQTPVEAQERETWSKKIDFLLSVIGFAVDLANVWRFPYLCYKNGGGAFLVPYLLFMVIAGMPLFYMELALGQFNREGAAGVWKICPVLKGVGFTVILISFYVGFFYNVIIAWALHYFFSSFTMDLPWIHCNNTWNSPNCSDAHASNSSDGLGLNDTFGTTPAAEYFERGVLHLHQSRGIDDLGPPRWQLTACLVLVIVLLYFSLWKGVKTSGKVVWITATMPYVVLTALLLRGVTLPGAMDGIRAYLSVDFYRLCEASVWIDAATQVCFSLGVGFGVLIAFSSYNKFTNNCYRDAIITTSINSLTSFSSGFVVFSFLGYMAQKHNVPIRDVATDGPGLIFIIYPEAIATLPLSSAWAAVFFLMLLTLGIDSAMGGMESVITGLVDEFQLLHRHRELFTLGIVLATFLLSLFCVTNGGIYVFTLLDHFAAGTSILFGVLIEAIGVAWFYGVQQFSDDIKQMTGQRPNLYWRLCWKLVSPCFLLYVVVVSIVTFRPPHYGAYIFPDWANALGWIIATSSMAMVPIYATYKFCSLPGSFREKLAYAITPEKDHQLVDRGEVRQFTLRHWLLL

As a reminder, the IC50 is the point on the concentration scale where inhibition reaches its midpoint. A higher IC50 goes with weaker potency. For `CN[C@H]1CC[C@@H](c2ccc(F)c(OC)c2)c2ccccc21`, the IC50 in test [1] amounted to 850 nM; in test [2] it was 3300 nM.
Take `CN[C@H]1CC[C@@H](c2ccccc2OC)c2ccccc21`: the half-maximal inhibitory concentration (IC50) in test [1] was found to be 11200 nM; in test [2], 2300 nM.
As to `CN(C)[C@@H]1CC[C@@H](c2ccccc2)c2ccccc21`, the IC50 in test [1] was 840 nM; in test [2], 140 nM.
Taken in the same sequence, the figures for `CN[C@H]1CC[C@@H](c2ccc(C(F)(F)F)cc2)c2ccccc21` were 7800 nM and 9800 nM.
The matching figures for `CN[C@@H]1CC[C@@H](c2ccc(F)c(OC)c2)c2ccccc21`: 1200 nM and 340 nM.
Taken in the same sequence, the figures for `COCCCC/C(=N\OCCN)c1ccc(C(F)(F)F)cc1` [FLUVOXAMINE] were 45000 nM and 1900 nM.
With `CN(C)[C@H]1CC[C@@H](c2ccc(Cl)c(Cl)c2)c2ccccc21`, the IC50 in test [1] was 2000 nM.
On to `CN(C)[C@@H]1CC[C@@H](c2ccc(Cl)cc2)c2ccccc21`, for which the figures for the IC50 in test [1] and in test [2] were 380 nM and 130 nM, respectively.
`CN[C@H]1CC[C@@H](c2ccc(Cl)cc2Cl)c2ccccc21`: 1700 nM corresponded to half-maximal inhibition in test [1] (IC50).
`CN[C@H]1CC[C@@H](c2cccc(OC)c2)c2ccccc21`: the IC50 in test [1] is 5000 nM; in test [2] it was 1400 nM.
For the molecule `CN[C@H]1CC[C@@H](c2ccc(Br)cc2)c2ccccc21`, the half-inhibitory concentration (IC50) in test [1] came out at 1600 nM; in test [2], 1400 nM.
`CN[C@@H]1CC[C@@H](c2ccc(Cl)c(C(F)(F)F)c2)c2ccccc21` returned an IC50 in test [1] of 7300 nM.
For the molecule `CN(C)[C@@H]1CC[C@@H](c2ccc(C(F)(F)F)cc2)c2ccccc21`, the IC50 in test [1] stood at 9800 nM; in test [2] it was 4700 nM.
With `CN(C)[C@H]1CC[C@@H](c2cccc(C(F)(F)F)c2)c2ccccc21`, the IC50 came to 7000 nM in test [1] and 890 nM in test [2].
Turning to `CN[C@H]1CC[C@@H](c2ccccc2)c2ccccc21`, the IC50 in test [1] was found to be 5100 nM; in test [2], 1860 nM.
Turning to `N[C@H]1CC[C@@H](c2ccc(Cl)c(Cl)c2)c2ccccc21`, the concentration for half-maximal inhibition (IC50) in test [1] worked out at 1250 nM; in test [2], 250 nM.
Molecule `CN[C@H]1CC[C@@H](c2ccc(Cl)c(C(F)(F)F)c2)c2ccccc21` yielded an IC50 in test [1] of 1500 nM.
In turn, `CN(C)C/C=C(/c1ccc(Br)cc1)c1cccnc1` [ZIMELDINE] showed a half-maximal inhibitory concentration (IC50) in test [1] of 43000 nM.
For `CN[C@@H]1CC[C@@H](c2ccc(OC)cc2)c2ccccc21`, the concentration for half-maximal inhibition (IC50) in test [1] turned out to be 400 nM; in test [2], 150 nM.
`CN[C@H]1CC[C@@H](c2ccc(C(F)(F)F)cc2)c2ccccc21` (stereo in doubt; 55): the IC50 in test [1] worked out at 5600 nM; in test [2] it was 12000 nM.
As to `CN(C)[C@H]1CC[C@@H](c2ccc(C(F)(F)F)cc2)c2ccccc21`, the values for the concentration for half-maximal inhibition (IC50) in test [1] and in test [2] were 12200 nM and 14200 nM, respectively.
Turning to `CN[C@H]1CC[C@@H](c2ccc(C(F)(F)F)cc2)c2ccccc21` (stereo in doubt; 54), the IC50 in test [1] was determined as 6400 nM; in test [2], 9400 nM.
Taken in the same sequence, the figures for `CN[C@H]1CC[C@@H](c2ccccc2)c2ccccc21` (stereo in doubt; 50) were 5500 nM and 1800 nM.
For `CN[C@@H]1CC[C@@H](c2cccc(OC)c2)c2ccccc21`, the IC50 in test [1] is 530 nM; in test [2] it was 60 nM.
In turn, `CN1Cc2c(N)cccc2C(c2ccccc2)C1` (configuration not stated) [NOMIFENSINE] displayed an IC50 in test [2] of 20 nM.
`CN[C@@H]1CC[C@@H](c2cccc(C(F)(F)F)c2)c2ccccc21`: the half-maximal inhibitory concentration (IC50) in test [1] worked out at 2600 nM; in test [2] it was 260 nM.
In the case of `CN[C@@H]1CC[C@@H](c2ccccc2OC)c2ccccc21`, the results for the half-inhibitory concentration (IC50) in test [1] and in test [2] were 5700 nM and 480 nM, respectively.
In the case of `CN[C@H]1CC[C@@H](c2ccc(F)cc2)c2ccccc21`, the half-inhibitory concentration (IC50) in test [1] amounted to 4700 nM; in test [2], 2300 nM.
`CCCCOc1ccc([C@@H]2CC[C@H](NC)c3ccccc32)cc1`: the half-maximal inhibitory concentration (IC50) in test [2] was 940 nM.
Turning to `CN[C@H]1CC[C@@H](c2ccc(OC)cc2)c2ccccc21`, the IC50 in test [1] stood at 4200 nM; in test [2], 3000 nM.
In the case of `CN[C@H]1CC[C@@H](c2ccc(Cl)c(C(F)(F)F)c2)c2ccccc21` (stereo in doubt; 60), inhibition in test [1] was half-maximal at 6200 nM (IC50).
As for `CN[C@@H]1CC[C@@H](c2ccc(Br)cc2)c2ccccc21`, the results for the IC50 in test [1] and in test [2] were 80 nM and 30 nM, respectively.
In the case of `CN[C@@H]1CC[C@@H](c2ccccc2)c2ccccc21` [TAMETRALINE HYDROCHLORIDE], the values for the IC50 in test [1] and in test [2] were 210 nM and 40 nM, respectively.
Molecule `CN[C@@H]1CC[C@@H](c2ccc(Cl)cc2Cl)c2ccccc21` registered an IC50 in test [1] of 6100 nM.
For the molecule `CCCCOc1ccc([C@@H]2CC[C@@H](NC)c3ccccc32)cc1`, the midpoint of inhibition in test [2], the IC50, lay at 1150 nM.
`CN[C@H]1CC[C@@H](c2ccccc2)c2ccccc21` (stereo in doubt; 51): the half-maximal inhibitory concentration (IC50) came to 10200 nM in test [1] and 4200 nM in test [2].
In the case of `CN[C@H]1CC[C@@H](c2cccc(C(F)(F)F)c2)c2ccccc21` (stereo in doubt; 56), the IC50 stood at 9700 nM in test [1] and 2700 nM in test [2].
The matching figures for `CN[C@H]1CC[C@@H](c2ccc(Oc3ccccc3)cc2)c2ccccc21`: 6800 nM and 3900 nM.
As for `CN(C)[C@H]1CC[C@@H](c2ccc(Cl)cc2)c2ccccc21`, the IC50 in test [1] was 5600 nM; in test [2] it was 1160 nM.
Taken in the same sequence, the figures for `CN(C)[C@H]1CC[C@@H](c2ccccc2)c2ccccc21` were 10000 nM and 310 nM.
On to `CN[C@H]1CC[C@@H](c2cccc(C(F)(F)F)c2)c2ccccc21`, for which the IC50 turned out to be 2540 nM in test [1] and 2550 nM in test [2].
Regarding `N[C@H]1CC[C@@H](c2cccc(C(F)(F)F)c2)c2ccccc21`, the IC50 is 4700 nM in test [1] and 3500 nM in test [2].
The matching figures for `CN[C@H]1CC[C@@H](c2cccc(C(F)(F)F)c2)c2ccccc21` (stereo in doubt; 57): 2500 nM and 7800 nM.
In test [1], `CN(C)[C@@H]1CC[C@@H](c2ccc(Cl)c(Cl)c2)c2ccccc21` yielded an IC50 of 170 nM.
With `CN(C)[C@@H]1CC[C@@H](c2cccc(C(F)(F)F)c2)c2ccccc21`, the IC50 in test [1] was determined as 6100 nM; in test [2], 1400 nM.
As for `CN[C@@H]1CC[C@@H](c2ccccc2)c2ccccc21` (stereo in doubt; 44) [TAMETRALINE], the IC50 in test [1] came to 150 nM; in test [2], 18 nM.
As to `CN[C@@H]1CC[C@@H](c2ccc(F)cc2)c2ccccc21`, the results for the half-maximal inhibitory concentration (IC50) in test [1] and in test [2] were 220 nM and 30 nM, respectively.
Take `CN[C@@H]1CC[C@@H](c2ccc(C(F)(F)F)cc2)c2ccccc21`: the half-maximal inhibitory concentration (IC50) in test [1] worked out at 4400 nM; in test [2], 690 nM.
Turning to `CN[C@@H]1CC[C@@H](c2ccccc2)c2ccccc21` (stereo in doubt; 45) [TAMETRALINE], the results for the IC50 in test [1] and in test [2] were 1400 nM and 370 nM, respectively.
In test [1], `CN[C@H]1CC[C@@H](c2ccc(Cl)c(C(F)(F)F)c2)c2ccccc21` (stereo in doubt; 61) had a half-maximal inhibitory concentration (IC50) of 490 nM.
Consider `CN[C@@H]1CC[C@@H](c2ccc(Oc3ccccc3)cc2)c2ccccc21`, for which the concentration for half-maximal inhibition (IC50) in test [1] stood at 8400 nM; in test [2], 2300 nM.
Taken in the same sequence, the figures for `N[C@H]1CC[C@@H](c2ccc(C(F)(F)F)cc2)c2ccccc21` were 10000 nM and 7500 nM.
